The values below come from PubChem BioAssay AID330 (DTP/NCI, 2004).

The structures appear in SMILES notation. “And” between values parts separate entries of the source, which are not always exact repeats. Equal values may be shown once. Inconclusive results and toxic doses are left out.

This test has as its system P388 leukemia ip, CD2F1 mice, survival T/C. The test can be described thus: NCI In Vivo Anticancer Drug Screen. Data for tumor model P388 Leukemia (intraperitoneal) in CD2F1 (CDF1) mice. The note with it: endpoint: median survival time, higher = longer survival. The method in brief:
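Mice carrying the transplanted tumor received test compound or vehicle. Survival was recorded in each group, and the value is the treated-group measurement divided by that of the vehicle-treated control group.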

Where [1] appears, read: dose: 50.0 mg/kg/injection, schedule: Q01DX009 (ip), vehicle: Klucel (hydroxypropylcellulose) (HPC).
Where [2] appears, read: dose: 100.0 mg/kg/injection, schedule: Q01DX009 (ip), vehicle: Klucel (hydroxypropylcellulose) (HPC).
Setting [3] is: dose: 200.0 mg/kg/injection, schedule: Q01DX009 (ip), vehicle: Klucel (hydroxypropylcellulose) (HPC).
[4] abbreviates: dose: 400.0 mg/kg/injection, schedule: Q01DX009 (ip), vehicle: Klucel (hydroxypropylcellulose) (HPC).
[5] abbreviates: dose: 25.0 mg/kg/injection, schedule: Q01DX009 (ip), vehicle: Klucel (hydroxypropylcellulose) (HPC).
The mark [6] stands for this setting: dose: 100.0 mg/kg/injection, schedule: Q01DX001 (ip), vehicle: Klucel (hydroxypropylcellulose) (HPC).
[7] abbreviates: dose: 200.0 mg/kg/injection, schedule: Q01DX001 (ip), vehicle: Klucel (hydroxypropylcellulose) (HPC).
Setting [8] is: dose: 100.0 mg/kg/injection, schedule: Q01DX009 (ip), vehicle: saline.
Where [9] appears, read: dose: 200.0 mg/kg/injection, schedule: Q01DX009 (ip), vehicle: saline.

For the molecule `COc1ccc(CC(=O)O)cc1OC` (tested in a mixture with another compound), the T/C by setting is: (dose: 100.0 mg/kg/injection, schedule: Q01DX009 (ip), vehicle: saline sonified) 100 % of control; (dose: 200.0 mg/kg/injection, schedule: Q01DX009 (ip), vehicle: saline sonified) 100 % of control; (dose: 400.0 mg/kg/injection, schedule: Q01DX009 (ip), vehicle: saline sonified) 100 % of control.
Regarding `O=C(NC(Cc1ccsc1)C(=O)O)c1ccccc1` (stereo unspecified), the T/C was 102 % of control (dose: 25.0 mg/kg/injection, schedule: Q01DX009 (ip), vehicle: other); 104 % of control (dose: 50.0 mg/kg/injection, schedule: Q01DX009 (ip), vehicle: other); 98 % of control (dose: 100.0 mg/kg/injection, schedule: Q01DX009 (ip), vehicle: other).
Regarding `COc1ccc(N=C2C(=Nc3ccc(OC)cc3)N(c3ccc(OC)cc3)C(=S)N2C)cc1`, the T/C (dose: 50.0 mg/kg/injection, schedule: Q01DX005 (ip), vehicle: Klucel + Tween-80) was 106 % of control; the T/C (dose: 100.0 mg/kg/injection, schedule: Q01DX005 (ip), vehicle: Klucel + Tween-80) was 93 % of control; the T/C (dose: 200.0 mg/kg/injection, schedule: Q01DX005 (ip), vehicle: Klucel + Tween-80) is 106 % of control.
In the case of `COC(=O)C1(Br)CCC1(Br)C(=O)OC` (stereo unspecified), the T/C was 100 % of control under setting [1], 109 % of control under setting [2], 103 % of control under setting [3] and 94 % of control under setting [4].
With `CC1(C)C(=O)C(C)(C)C1O[Si](C)(C)OC1C(C)(C)C(=O)C1(C)C`, the T/C reads like this: (dose: 100.0 mg/kg/injection, schedule: Q04DX003 (ip), vehicle: Klucel (hydroxypropylcellulose) (HPC)) 102 % of control; (dose: 200.0 mg/kg/injection, schedule: Q04DX003 (ip), vehicle: Klucel (hydroxypropylcellulose) (HPC)) 101 % of control; (dose: 400.0 mg/kg/injection, schedule: Q04DX003 (ip), vehicle: Klucel (hydroxypropylcellulose) (HPC)) 93 % of control.
`O=C1c2ccccc2CC12OC2c1ccccc1` (stereo unspecified): the T/C is 96 % of control under setting [5]; 92 % of control under setting [1]; 92 % of control under setting [2]; 89 % of control under setting [3]; 92 % of control under setting [4].
As to `OCC(O)/C=C/c1ccccc1` (stereo unspecified), the T/C under setting [6] was 95 % of control; the T/C (dose: 100.0 mg/kg/injection, schedule: Q04DX002 (ip), vehicle: saline with Tween-80) is 96 % of control; the T/C under setting [7] is 103 % of control; the T/C (dose: 200.0 mg/kg/injection, schedule: Q04DX002 (ip), vehicle: saline with Tween-80) is 90 % of control; the T/C (dose: 400.0 mg/kg/injection, schedule: Q01DX001 (ip), vehicle: Klucel (hydroxypropylcellulose) (HPC)) was 108 % of control; the T/C (dose: 400.0 mg/kg/injection, schedule: Q04DX002 (ip), vehicle: saline with Tween-80) is 99 % of control.
Take `c1ccc2c3cc(cc2c1)OCCOCCOCCOc1ccc2ccccc2c1-c1c(ccc2ccccc12)OCCOCCOc1ccc2ccccc2c1-3`: the T/C was 97 % of control (dose: 100.0 mg/kg/injection, schedule: Q01DX001 (ip), vehicle: saline with Tween-80) and 94 % of control (dose: 200.0 mg/kg/injection, schedule: Q01DX001 (ip), vehicle: saline with Tween-80).
For the molecule `CC(C)C/C=N/N(C)C=O`, the T/C (dose: 100.0 mg/kg/injection, schedule: Q04DX002 (ip), vehicle: saline) was 100 % of control; the T/C (dose: 200.0 mg/kg/injection, schedule: Q04DX002 (ip), vehicle: saline) is 100 % of control; the T/C (dose: 400.0 mg/kg/injection, schedule: Q04DX002 (ip), vehicle: saline) was 103 % of control.
`O=C1C2CC=C3CCCC3C2C(=O)C2CC=C3CCCC3C12` (stereo unspecified): the T/C runs as follows: (dose: 7.5 mg/kg/injection, schedule: Q01DX009 (ip), vehicle: saline with Tween-80) 105 % of control; (dose: 15.0 mg/kg/injection, schedule: Q01DX009 (ip), vehicle: saline with Tween-80) 102 % of control; (dose: 30.0 mg/kg/injection, schedule: Q01DX009 (ip), vehicle: saline with Tween-80) 106 % of control.
With `O=c1c2ccccc2nc(-c2ccccc2)n1O`, the T/C by setting is: (dose: 12.5 mg/kg/injection, schedule: Q01DX009 (ip), vehicle: Klucel (hydroxypropylcellulose) (HPC)) 103 % of control and 112 % of control; under setting [5], 118 % of control and 94 % of control; under setting [1], 120 % of control; under setting [2], 94 % of control; under setting [3], 91 % of control.
As to `N#CCCP(=O)(O)CCC#N`, the T/C by setting is: (dose: 60.0 mg/kg/injection, schedule: Q01DX005 (ip), vehicle: saline) 100 % of control; (dose: 120.0 mg/kg/injection, schedule: Q01DX005 (ip), vehicle: saline) 100 % of control; (dose: 240.0 mg/kg/injection, schedule: Q01DX005 (ip), vehicle: saline) 90 % of control.
On to `CCCCCCCCC[N+]1(CC)CCCCC1`, for which the T/C (dose: 3.12 mg/kg/injection, schedule: Q01DX009 (ip), vehicle: saline) is 121 % of control; the T/C (dose: 6.25 mg/kg/injection, schedule: Q01DX009 (ip), vehicle: saline) was 121 % of control; the T/C (dose: 12.5 mg/kg/injection, schedule: Q01DX009 (ip), vehicle: saline) was 86 % of control.
Consider `CC(NNC(=S)N1CCCCCC1)c1ccccn1` (stereo unspecified), for which the T/C is 103 % of control (dose: 12.5 mg/kg/injection, schedule: Q01DX005 (ip), vehicle: Klucel (hydroxypropylcellulose) (HPC)); 106 % of control (dose: 25.0 mg/kg/injection, schedule: Q01DX005 (ip), vehicle: Klucel (hydroxypropylcellulose) (HPC)); 112 % of control and 113 % of control (dose: 50.0 mg/kg/injection, schedule: Q01DX005 (ip), vehicle: Klucel (hydroxypropylcellulose) (HPC)).
For the molecule `CCCCCn1cnc2c(=S)nc[nH]c21`, the T/C (dose: 100.0 mg/kg/injection, schedule: Q04DX003 (ip), vehicle: saline with Tween-80) was 104 % of control; the T/C (dose: 200.0 mg/kg/injection, schedule: Q04DX003 (ip), vehicle: saline with Tween-80) was 100 % of control; the T/C (dose: 400.0 mg/kg/injection, schedule: Q04DX003 (ip), vehicle: saline with Tween-80) was 90 % of control.
As for `COC(=O)Cn1/c(=N\N=C(/C)c2ccc([N+](=O)[O-])cc2)sc2ccccc21`, the T/C was 92 % of control (dose: 12.5 mg/kg/injection, schedule: Q01DX001 (ip), vehicle: saline with Tween-80); 89 % of control (dose: 25.0 mg/kg/injection, schedule: Q01DX001 (ip), vehicle: saline with Tween-80); 89 % of control (dose: 50.0 mg/kg/injection, schedule: Q01DX001 (ip), vehicle: saline with Tween-80); 88 % of control (dose: 400.0 mg/kg/injection, schedule: Q01DX001 (ip), vehicle: saline with Tween-80).
For `CNC(=O)OCc1c(COC(=O)NC)c(-c2ccc(Sc3ccccc3)cc2)n(C)c1C`, the T/C (dose: 12.5 mg/kg/injection, schedule: Q01DX009 (ip), vehicle: distilled water + Tween-80) was 154 % of control; the T/C (dose: 25.0 mg/kg/injection, schedule: Q01DX009 (ip), vehicle: distilled water + Tween-80) is 152 % of control; the T/C (dose: 50.0 mg/kg/injection, schedule: Q01DX009 (ip), vehicle: distilled water + Tween-80) is 160 % of control and 162 % of control; the T/C (dose: 100.0 mg/kg/injection, schedule: Q01DX009 (ip), vehicle: distilled water + Tween-80) is 171 % of control and 184 % of control; the T/C (dose: 200.0 mg/kg/injection, schedule: Q01DX009 (ip), vehicle: distilled water + Tween-80) is 108 % of control.
For the molecule `CCOC(=O)CC(=O)C(C)(OCC)OCC`, the T/C was 157 % of control under setting [8] and 190 % of control under setting [9].
Consider `CCNCC(O)c1ccc(F)cc1` (stereo unspecified), for which the T/C (dose: 50.0 mg/kg/injection, schedule: Q01DX009 (ip), vehicle: saline) was 101 % of control; the T/C under setting [8] was 96 % of control; the T/C under setting [9] was 91 % of control.
As to `O=C(N/N=C/c1ccc(F)cc1)c1ccncc1`, the T/C is 91 % of control (dose: 50.0 mg/kg/injection, schedule: Q01DX009 (ip), vehicle: saline with Tween-80); 92 % of control (dose: 100.0 mg/kg/injection, schedule: Q01DX009 (ip), vehicle: saline with Tween-80); 90 % of control (dose: 200.0 mg/kg/injection, schedule: Q01DX009 (ip), vehicle: saline with Tween-80).
On to `COc1c(C)cc(C)c(CCl)c1-c1c(CCl)c(C)cc(C)c1OC`, for which the T/C runs as follows: under setting [6], 90 % of control; under setting [7], 93 % of control.
